Experimental findings from patent publication US20080227797A1, “Pyridopyrimidine Derivatives as Pde4 Inhibitors for the Treatment of Inflammatory and Immune Diseases” (ASTRAZENECA AB, priority 2005, published 2008) are described below.

Some results are limits rather than exact numbers.

recombinant Human Phosphodiesterase B2 (PDE4B2), sequence (Q07343 1-564 isoform Q07343-2): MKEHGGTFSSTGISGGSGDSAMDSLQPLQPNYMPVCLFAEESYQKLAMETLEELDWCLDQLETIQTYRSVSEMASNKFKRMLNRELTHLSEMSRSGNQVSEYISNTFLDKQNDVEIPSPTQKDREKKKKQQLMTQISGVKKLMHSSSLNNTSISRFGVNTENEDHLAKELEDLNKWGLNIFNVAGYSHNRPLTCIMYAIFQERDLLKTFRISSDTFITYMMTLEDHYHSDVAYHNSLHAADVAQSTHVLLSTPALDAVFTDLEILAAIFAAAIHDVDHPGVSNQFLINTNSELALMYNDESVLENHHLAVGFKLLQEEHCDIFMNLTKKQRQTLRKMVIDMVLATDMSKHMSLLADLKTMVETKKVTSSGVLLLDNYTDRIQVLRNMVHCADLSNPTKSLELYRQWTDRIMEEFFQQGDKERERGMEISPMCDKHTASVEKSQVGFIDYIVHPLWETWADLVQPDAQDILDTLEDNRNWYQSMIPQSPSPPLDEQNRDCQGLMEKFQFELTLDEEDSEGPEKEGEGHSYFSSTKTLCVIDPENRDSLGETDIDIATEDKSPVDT

The target of the assay is recombinant Human Phosphodiesterase B2 (PDE4B2) (Homo sapiens, UniProt Q07343). Description: Human Phosphodiesterase B2 Alpha Screen Assay. In kind it is biochemical. Conditions: cAMP substrate, Alpha Screen cAMP kit, 60 minutes at room temperature. The procedure:
Human Phosphodiesterase B2 Alpha Screen Assay
The assay uses recombinant Human Phosphodiesterase B2 (PDE4B2) produced in house (PrAZL0133), stored at −20° C. The substrate uses cAMP, part of the Alpha Screen cAMP kit (Perkin Elmer, Cat# 6760625M), stored at 4° C. The Alpha Screen kit also includes biotinylated cAMP, acceptor and donor beads.
The assay additions were as follows: Test compounds and controls were added to white 384-well flat-bottom plates (Greiner, Cat# 781075), 0.2 μl in 100% DMSO, followed by 10 μl PDE4B2 in reaction buffer. The reaction buffer constitution was: 50 mM Tris (pH 7.5), 8.3 mM MgCl2, 1.7 mM EGTA and 0.01% (w/v) Brij®35. The enzyme and the compounds were incubated at room temperature for 15 minutes. Then 10 μl cAMP in reaction buffer was added. The assay was stopped after 60 minutes incubation at room temperature by adding 10 μl acceptor beads in detection buffer with 40 mM EDTA. The detection buffer constitution was: 5 mM Tris (pH 7.5), 0.1% (w/v) BSA and 0.1% (v/v) Tween 20. This addition followed by an addition of 10 μl donor beads in detection buffer, with biotinylated cAMP. The plates were then incubated, dark at room temperature, for 5 hours followed by measurement on a Fusion™-α analyser. IC50 values (presented in Table 1) were determined using Xlfit curve fitting using model 205.
Take `CS(=O)(=O)c1cccc(-n2c(=O)n([C@H]3CC[C@@H](NC(=O)c4cc(CO)ccc4O)CC3)c(=O)c3cc(F)cnc32)c1` [Example 41, N-{cis-4-[6-fluoro-1-[3-(methylsulfonyl)phenyl]-2,4-dioxo-1,4-dihydropyrido[2,3-d]pyrimidin-3(2H)-yl]cyclohexyl}-2-hydroxy-5-(hydroxymethyl)benzamide]: the IC50 (commonly the concentration at which inhibition is half-maximal) worked out at 51.9 nM.

Regarding `CS(=O)(=O)c1cccc(-n2c(=O)n([C@H]3CC[C@@H](NC(=O)[C@H](O)c4ccccc4)CC3)c(=O)c3cc(F)cnc32)c1` [Example 42, (2R)-N-{cis-4-[6-fluoro-1-[3-(methylsulfonyl)phenyl]-2,4-dioxo-1,4-dihydropyrido[2,3-d]pyrimidin-3(2H)-yl]cyclohexyl}-2-hydroxy-2-phenylacetamide], the IC50 is less than 16 nM.

As to `CS(=O)(=O)c1cccc(-n2c(=O)n([C@H]3CC[C@@H](NC(=O)[C@@H](O)c4ccccc4)CC3)c(=O)c3cc(F)cnc32)c1` [Example 43, (2S)-N-{cis-4-[6-fluoro-1-[3-(methylsulfonyl)phenyl]-2,4-dioxo-1,4-dihydropyrido[2,3-d]pyrimidin-3(2H)-yl]cyclohexyl}-2-hydroxy-2-phenylacetamide], the IC50 came out at 36.4 nM.

As for `CS(=O)(=O)c1cccc(-n2c(=O)n([C@H]3CC[C@@H](NC(=O)CO)CC3)c(=O)c3cc(F)cnc32)c1` [Example 44, N-{cis-4-[6-fluoro-1-[3-(methylsulfonyl)phenyl]-2,4-dioxo-1,4-dihydropyrido[2,3-d]pyrimidin-3(2H)-yl]cyclohexyl}-2-hydroxyacetamide], the IC50 came to 432 nM.

Regarding `COC(=O)c1cccc(-n2c(=O)n([C@H]3CC[C@@H](NC(=O)c4cc(C)ccc4O)CC3)c(=O)c3cc(F)cnc32)c1` [Example 45, methyl 3-[6-fluoro-3-{cis-4-[(2-hydroxy-5-methylbenzoyl)amino]cyclohexyl}-2,4-dioxo-3,4-dihydropyrido[2,3-d]pyrimidin-1(2H)-yl]benzoate], the IC50 is less than 16 nM.

For the compound `CS(=O)(=O)N[C@H]1CC[C@@H](n2c(=O)c3cc(F)cnc3n(-c3ccc(F)c(F)c3)c2=O)CC1` [Example 47, N-{cis-4-[1-(3,4-Difluorophenyl)-6-fluoro-2,4-dioxo-1,4-dihydropyrido[2,3-d]pyrimidin-3(2H)-yl]cyclohexyl}methanesulfonamide], the IC50 came out at 60.1 nM.

Turning to `O=C(N[C@H]1CC[C@@H](n2c(=O)c3cc(F)cnc3n(-c3ccc(F)c(F)c3)c2=O)CC1)C1CC1` [Example 48, N-{cis-4-[1-(3,4-Difluorophenyl)-6-fluoro-2,4-dioxo-1,4-dihydropyrido[2,3-d]pyrimidin-3(2H)-yl]cyclohexyl}cyclopropanecarboxamide], the IC50 was 8.8 nM.

`COC(=O)c1cccc(-n2c(=O)n([C@H]3CC[C@@H](NC(=O)[C@@H]4CCCN4C)CC3)c(=O)c3cc(F)cnc32)c1` [Example 49, Methyl 3-[6-fluoro-3-{cis-4-[(1-methyl-L-prolyl)amino]cyclohexyl}-2,4-dioxo-3,4-dihydropyrido[2,3-d]pyrimidin-1(2H)-yl]benzoate]: the IC50 turned out to be 14.5 nM.

As for `COC(=O)c1ccc(C(=O)N[C@H]2CC[C@@H](n3c(=O)c4cc(F)cnc4n(-c4ccc(F)c(F)c4)c3=O)CC2)cn1` [Example 50, methyl 5-[({cis-4-[1-(3,4-difluorophenyl)-6-fluoro-2,4-dioxo-1,4-dihydropyrido[2,3-d]pyrimidin-3(2H)-yl]cyclohexyl}amino)carbonyl]pyridine-2-carboxylate], the concentration for half-maximal inhibition (IC50) came out at 2.1 nM.

On to `O=C(N[C@H]1CC[C@@H](n2c(=O)c3cc(F)cnc3n(-c3ccc(F)c(F)c3)c2=O)CC1)c1ccc(F)cc1O` [Example 51, N-{cis-4-[1-(3,4-difluorophenyl)-6-fluoro-2,4-dioxo-1,4-dihydropyrido[2,3-d]pyrimidin-3(2H)-yl]cyclohexyl}-4-fluoro-2-hydroxybenzamide], for which the IC50 came out at 5.2 nM.

Consider `O=C(N[C@H]1CC[C@@H](n2c(=O)c3cc(F)cnc3n(-c3ccc(F)c(F)c3)c2=O)CC1)C1(O)CC1` [Example 52, N-{cis-4-[1-(3,4-difluorophenyl)-6-fluoro-2,4-dioxo-1,4-dihydropyrido[2,3-d]pyrimidin-3(2H)-yl]cyclohexyl}-1-hydroxycyclopropanecarboxamide], for which the IC50 is 18.6 nM.

In the case of `O=C(N[C@H]1CC[C@@H](n2c(=O)c3cc(F)cnc3n(-c3ccc(F)c(F)c3)c2=O)CC1)c1cccc2cccnc12` [Example 53, N-{cis-4-[1-(3,4-difluorophenyl)-6-fluoro-2,4-dioxo-1,4-dihydropyrido[2,3-d]pyrimidin-3(2H)-yl]cyclohexyl}quinoline-8-carboxamide], the IC50 amounted to 0.4 nM.

Take `CSc1cccc(-n2c(=O)n([C@H]3CC[C@@H](NC(=O)c4ccco4)CC3)c(=O)c3cc(F)cnc32)c1` [Example 54, N-{cis-4-[6-fluoro-1-[3-(methylthio)phenyl]-2,4-dioxo-1,4-dihydropyrido[2,3-d]pyrimidin-3(2H)-yl]cyclohexyl}-2-furamide]: the IC50 was determined as 3.9 nM.

Consider `CSc1cccc(-n2c(=O)n([C@H]3CC[C@@H](NC(=O)C4CC4)CC3)c(=O)c3cc(F)cnc32)c1` [Example 55, N-{cis-4-[6-fluoro-1-[3-(methylthio)phenyl]-2,4-dioxo-1,4-dihydropyrido[2,3-d]pyrimidin-3(2H)-yl]cyclohexyl}cyclopropanecarboxamide], for which the IC50 was 2.6 nM.

Turning to `CCC(=O)N[C@H]1CC[C@@H](n2c(=O)c3cc(F)cnc3n(-c3cccc(SC)c3)c2=O)CC1` [Example 56, N-{cis-4-[6-fluoro-1-[3-(methylthio)phenyl]-2,4-dioxo-1,4-dihydropyrido[2,3-d]pyrimidin-3(2H)-yl]cyclohexyl}propanamide], the IC50 was found to be 7.2 nM.

As for `CSc1cccc(-n2c(=O)n([C@H]3CC[C@@H](NC(=O)c4ccccc4)CC3)c(=O)c3cc(F)cnc32)c1` [Example 57, N-{cis-4-[6-fluoro-1-[3-(methylthio)phenyl]-2,4-dioxo-1,4-dihydropyrido[2,3-d]pyrimidin-3(2H)-yl]cyclohexyl}benzamide], the IC50 is 4.2 nM.

On to `CSc1cccc(-n2c(=O)n([C@H]3CC[C@@H](NC(=O)C4CCCC4)CC3)c(=O)c3cc(F)cnc32)c1` [Example 58, N-{cis-4-[6-fluoro-1-[3-(methylthio)phenyl]-2,4-dioxo-1,4-dihydropyrido[2,3-d]pyrimidin-3(2H)-yl]cyclohexyl}cyclopentanecarboxamide], for which the IC50 came to 3.9 nM.

As to `CSc1cccc(-n2c(=O)n([C@H]3CC[C@@H](NC(=O)C(C)(C)O)CC3)c(=O)c3cc(F)cnc32)c1` [Example 59, N-{cis-4-[6-fluoro-1-[3-(methylthio)phenyl]-2,4-dioxo-1,4-dihydropyrido[2,3-d]pyrimidin-3(2H)-yl]cyclohexyl}-2-hydroxy-2-methylpropanamide], the IC50 was 14.9 nM.

For `CSc1cccc(-n2c(=O)n([C@H]3CC[C@@H](NS(=O)(=O)c4ccccc4)CC3)c(=O)c3cc(F)cnc32)c1` [Example 60, N-{cis-4-[6-fluoro-1-[3-(methylthio)phenyl]-2,4-dioxo-1,4-dihydropyrido[2,3-d]pyrimidin-3(2H)-yl]cyclohexyl}benzenesulfonamide], the IC50 worked out at 32.4 nM.
